Experimental data reported in PMC12207590, “Substrate Specificity of the Organic Cation Transporters MATE1 and MATE2K and Functional Overlap with OCT1 and OCT2” (Journal of Medicinal Chemistry, 2025).
Like-named read-outs stand apart in the source and are kept apart here.

What was measured:
[1] = target: T1, MATE1 (Homo sapiens, UniProt Q96FL8); test: Uptake ratio in MATE1-overexpressing HEK293 cells vs empty vector (2.5 μM, 1 min, HPLC-MS/MS); assay type: cell-based
T1 sequence (Q96FL8 1-570): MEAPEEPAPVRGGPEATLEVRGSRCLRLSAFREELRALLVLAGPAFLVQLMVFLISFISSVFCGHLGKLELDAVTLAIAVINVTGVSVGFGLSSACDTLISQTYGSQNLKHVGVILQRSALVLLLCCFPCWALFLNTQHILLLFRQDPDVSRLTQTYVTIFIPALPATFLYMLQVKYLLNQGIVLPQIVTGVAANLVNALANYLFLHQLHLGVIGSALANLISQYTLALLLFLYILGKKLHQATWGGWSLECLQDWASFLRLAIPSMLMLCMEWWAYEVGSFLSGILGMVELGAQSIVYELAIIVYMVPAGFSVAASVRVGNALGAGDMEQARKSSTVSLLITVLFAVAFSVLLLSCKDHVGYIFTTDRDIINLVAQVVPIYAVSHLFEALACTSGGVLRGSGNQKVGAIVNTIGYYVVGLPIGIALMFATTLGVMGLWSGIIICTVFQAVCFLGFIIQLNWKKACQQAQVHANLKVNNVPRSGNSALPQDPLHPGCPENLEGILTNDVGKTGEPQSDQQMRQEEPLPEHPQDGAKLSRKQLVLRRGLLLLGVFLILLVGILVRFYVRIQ

[2] = target: MATE2K (Homo sapiens, UniProt Q86VL8); test: Uptake ratio in MATE2K-overexpressing HEK293 cells vs empty vector (2.5 μM, 1 min, HPLC-MS/MS); assay type: cell-based
Chain of MATE2K (Q86VL8 1-566 isoform Q86VL8-3): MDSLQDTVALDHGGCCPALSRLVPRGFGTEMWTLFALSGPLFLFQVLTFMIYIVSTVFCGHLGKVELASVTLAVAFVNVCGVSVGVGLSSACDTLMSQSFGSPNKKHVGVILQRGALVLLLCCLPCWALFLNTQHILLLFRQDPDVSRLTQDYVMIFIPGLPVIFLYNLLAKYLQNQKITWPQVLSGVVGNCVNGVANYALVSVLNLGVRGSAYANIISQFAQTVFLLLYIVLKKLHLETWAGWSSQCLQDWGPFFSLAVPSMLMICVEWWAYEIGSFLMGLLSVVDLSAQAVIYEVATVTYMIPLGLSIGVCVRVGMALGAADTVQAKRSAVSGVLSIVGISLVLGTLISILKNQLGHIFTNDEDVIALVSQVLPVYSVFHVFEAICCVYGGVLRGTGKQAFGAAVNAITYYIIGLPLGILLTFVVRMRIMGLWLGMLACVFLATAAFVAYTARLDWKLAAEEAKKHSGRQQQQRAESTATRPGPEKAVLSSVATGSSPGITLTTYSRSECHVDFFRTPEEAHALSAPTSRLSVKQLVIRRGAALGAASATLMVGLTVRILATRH

[3] = fold uptake over empty vector, 2.5 μM, 1 min
[4] = uptake ratio MATE1-overexpressing vs empty-vector HEK293 cells, 2.5 μM, 1 min, mean
[5] = uptake ratio MATE2K-overexpressing vs empty-vector HEK293 cells, 2.5 μM, 1 min, mean
[6] = mean ratio of uptake in MATE1-overexpressing HEK293 cells vs empty vector, 2.5 μM, 1 min
[7] = mean ratio of uptake in MATE2K-overexpressing HEK293 cells vs empty vector, 2.5 μM, 1 min

COc1cc2c(cc1OC)[C@@]13CCN4CC5=CCO[C@H]6CC(=O)N2[C@H]1[C@H]6[C@H]5C[C@H]43 [Brucine]
MATE1 (uptake ratio) [1]: 1.13 | MATE1 ratio [1]: 1.13 | MATE2 (uptake ratio) [2]: 1.3 | MATE2K ratio [2]: 1.30

O=C(O)c1cccnc1 [Niacin]
MATE1 ratio [1, 3]: 1.06 | MATE2K ratio [2, 3]: 0.90

CC(C)(C)NCC(O)c1ccc(O)c(CO)c1 [Salbutamol (S), Salbutamol]
MATE1 ratio in this study ([1]; Table S1, 2.5 μM, 1 min): 8.88 | MATE1 ratio [1, 3]: 8.88 | MATE1 [1, 4]: 8.88 | MATE2K ratio in this study ([2]; Table S1, 2.5 μM, 1 min): 5.09 | MATE2K ratio [2, 3]: 5.09 | MATE2 [2, 5]: 5.09

Cc1ccc(C(=O)Oc2ccc(C(O)CNC(C)(C)C)cc2OC(=O)c2ccc(C)cc2)cc1 (stereo not shown) [Bitolterol]
MATE1 ratio [1, 3]: 0.38 | MATE1 (uptake ratio) [1, 6]: 0.38 | MATE2K ratio [2, 3]: 0.57 | MATE2 (uptake ratio) [2, 7]: 0.57

CCN1CCN(Cc2ccc(Nc3ncc(F)c(-c4cc(F)c5nc(C)n(C(C)C)c5c4)n3)nc2)CC1 [Abemaciclib]
MATE1 ratio [1, 3]: 1.06 | MATE1 (uptake ratio) [1, 6]: 1.06 | MATE2K ratio [2, 3]: 1.01 | MATE2 (uptake ratio) [2, 7]: 1.01

COc1ccccc1OCCNCC(O)COc1cccc2[nH]c3ccccc3c12 [Carvedilol (R), Carvedilol]
MATE1 ratio [1, 3]: 1.17 | MATE1 (uptake ratio) [1, 6]: 1.17 | MATE2K ratio [2, 3]: 1.08 | MATE2 (uptake ratio) [2, 7]: 1.08

COc1ccc2c3c([nH]c2c1)C(C)=NCC3 [Harmaline]
MATE1 ratio [1]: 1.19 | MATE2K ratio [2]: 1.15

OCCN1CCN(CCCN2c3ccccc3Sc3ccc(Cl)cc32)CC1 [Perphenazine]
MATE1 ratio [1, 3]: 1.09 | MATE2K ratio [2, 3]: 0.94

Nc1nc(NC2CC2)c2ncn([C@H]3C=C[C@@H](CO)C3)c2n1 [Abacavir]
MATE1 ratio [1, 3]: 0.94 | MATE1 (uptake ratio) [1, 6]: 0.94 | MATE2K ratio [2, 3]: 1.25 | MATE2 (uptake ratio) [2, 7]: 1.25

COc1ccc2[nH]cc(C[C@H](N)C(=O)O)c2c1
MATE1 ratio [1, 3]: 0.89 | MATE2K ratio [2, 3]: 1.10

CC(C)Nc1cccnc1N1CCN(C(=O)c2cc3cc(NS(C)(=O)=O)ccc3[nH]2)CC1 [Delavirdine]
MATE1 ratio [1, 3]: 1.19 | MATE2K ratio [2, 3]: 1.09

CN(C)CCC=C1c2ccccc2COc2ccccc21 [Doxepin (Z), Doxepin]
MATE1 ratio [1, 3]: 1.28 | MATE2K ratio [2, 3]: 1.09

CC(=O)OC1CN2CCC1CC2 (stereo not shown) [Aceclidine]
MATE1 (uptake ratio) [1]: 1.26 | MATE1 ratio [1]: 1.26 | MATE2 (uptake ratio) [2]: 1.08 | MATE2K ratio [2]: 1.08

COc1ccc(CCN)cc1 [4-Methoxyphenethylamine]
MATE1 (uptake ratio) [1]: 1.4 | MATE1 ratio [1]: 1.40 | MATE2 (uptake ratio) [2]: 1.23 | MATE2K ratio [2]: 1.23

NCCc1c[nH]c2c(O)cc(O)cc12 [5,7-Dihydroxytryptamine]
MATE1 (uptake ratio) [1]: 1.13 | MATE1 ratio [1]: 1.13 | MATE2 (uptake ratio) [2]: 0.84 | MATE2K ratio [2]: 0.84

CCNC(C)Cc1ccc2c(c1)OCO2 (stereo not shown) [Methylenedioxyethamphetamine]
MATE1 ratio [1]: 1.07 | MATE2K ratio [2]: 1.39

CCC1(C2=NCCN2)Cc2ccccc2O1 (stereo not shown) [Efaroxan]
MATE1 ratio [1, 3]: 1.38 | MATE2K ratio [2, 3]: 1.72

C1CCN2C[C@H]3C[C@H](CN4CCCC[C@@H]34)[C@H]2C1 [Sparteine (-), Sparteine]
MATE1 [1]: 2.12 | MATE1 ratio [1]: 2.12 | MATE1 ratio in this study [1]: 2.12 | MATE2 [2]: 1.66 | MATE2K ratio [2]: 1.66 | MATE2K ratio in this study [2]: 1.66

CC(C)N(CCC(C(N)=O)(c1ccccc1)c1ccccn1)C(C)C (stereo not shown) [Disopyramide]
MATE1 ratio [1, 3]: 1.26 | MATE2K ratio [2, 3]: 1.21

NCCCCN [Putrescine]
MATE1 ratio [1, 3]: 0.36 | MATE1 [1, 4]: 0.36 | MATE2K ratio [2, 3]: 0.48 | MATE2 [2, 5]: 0.48

CC(C)(C)c1ccc(C(O)CCCN2CCC(C(O)(c3ccccc3)c3ccccc3)CC2)cc1 (stereo not shown) [Terfenadine]
MATE1 [1, 4]: 1.07 | MATE2 [2, 5]: 0.93

CN(C)CCc1c[nH]c2ccc(CS(=O)(=O)N3CCCC3)cc12 [Almotriptan]
MATE1 ratio [1, 3]: 4.40 | MATE1 (uptake ratio) [1, 6]: 4.4 | MATE2K ratio [2, 3]: 2.36 | MATE2 (uptake ratio) [2, 7]: 2.36

CCN1CCC[C@H]1CNC(=O)c1c(OC)ccc(Br)c1OC [Remoxipride]
MATE1 ratio [1, 3]: 1.19 | MATE1 [1, 4]: 1.19 | MATE2K ratio [2, 3]: 1.21 | MATE2 [2, 5]: 1.21

CC[N+](C)(CC)CCOC(=O)C(O)(c1ccccc1)C1CCCCC1 (stereo not shown) [Oxyphenonium]
MATE1 ratio [1, 3]: 9.89 | MATE2K ratio [2, 3]: 2.04

N=C(N)N1CCc2ccccc2C1 [Debrisoquine]
MATE1 ratio in this study ([1]; Table S1, 2.5 μM, 1 min): 8.16 | MATE1 ratio [1, 3]: 8.16 | MATE2K ratio in this study ([2]; Table S1, 2.5 μM, 1 min): 5.05 | MATE2K ratio [2, 3]: 5.05

COc1ccc(C(CN(C)C)C2(O)CCCCC2)cc1 (stereo not shown) [Venlafaxine]
MATE1 [1]: 1.22 | MATE2 [2]: 1.3

NCCC(=O)N[C@@H](Cc1cnc[nH]1)C(=O)O [Carnosine]
MATE1 ratio [1, 3]: 0.18 | MATE1 (uptake ratio) [1, 6]: 0.18 | MATE2K ratio [2, 3]: 1.03 | MATE2 (uptake ratio) [2, 7]: 1.03

C=C[C@H]1CN2CC[C@H]1C[C@H]2[C@H](O)c1ccnc2ccccc12 [Cinchonidine]
MATE1 (uptake ratio) [1]: 1.16 | MATE1 ratio [1]: 1.16 | MATE2 (uptake ratio) [2]: 1.14 | MATE2K ratio [2]: 1.14

Nc1ccc2[nH]ncc2c1 [5-Aminoindazole]
MATE1 ratio [1, 3]: 0.99 | MATE1 (uptake ratio) [1, 6]: 0.99 | MATE2K ratio [2, 3]: 0.73 | MATE2 (uptake ratio) [2, 7]: 0.73

COC(=O)CCc1ccc(OCC(O)CNC(C)C)cc1 (stereo not shown) [Esmolol]
MATE1 ratio [1, 3]: 1.42 | MATE2K ratio [2, 3]: 1.23

CN(CCN1CCC(OC(=O)Nc2ccccc2-c2ccccc2)CC1)C(=O)c1ccc(CN2CCC(C(N)=O)CC2)cc1 [Revefenacin]
MATE1 ratio [1, 3]: 1.39 | MATE1 [1, 4]: 1.39 | MATE2K ratio [2, 3]: 1.17 | MATE2 [2, 5]: 1.17

CC1(C)OC[C@@H](COC(=O)CCc2ccc(OC[C@@H](O)CNCCNC(=O)N3CCOCC3)cc2)O1 [Landiolol]
MATE1 ratio [1, 3]: 3.68 | MATE2K ratio [2, 3]: 2.87

NC(=O)NCCC[C@H](N)C(=O)O [Citrulline]
MATE1 (uptake ratio) [1]: 0.77 | MATE1 ratio [1]: 0.77 | MATE2 (uptake ratio) [2]: 1.26 | MATE2K ratio [2]: 1.26

CN1[C@@H]2CC[C@H]1C[C@@H](OC(=O)c1c[nH]c3ccccc13)C2 [Tropisetron]
MATE1 [1, 4]: 1.22 | MATE2 [2, 5]: 1.15

CN(C)CCc1c[nH]c2ccc(Cn3cncn3)cc12 [Rizatriptan]
MATE1 ratio [1, 3]: 6.63 | MATE1 [1, 4]: 6.63 | MATE2K ratio [2, 3]: 3.35 | MATE2 [2, 5]: 3.35

Nc1ncn([C@H]2C[C@H](O)[C@@H](CO)O2)c(=O)n1 [Decitabine]
MATE1 ratio [1, 3]: 1.13 | MATE2K ratio [2, 3]: 1.04

CC(NC(C)(C)CO)C(=O)c1cccc(Cl)c1 (stereo not shown) [Hydroxybupropion]
MATE1 ratio [1]: 1.09 | MATE2K ratio [2]: 1.51

CNCCc1ccc(O)cc1 [N-Methyl-p-Tyramine]
MATE1 ratio [1]: 3.11 | MATE2K ratio [2]: 1.39

C[N+]12CCC(CC1)C(OC(=O)C(O)(c1ccccc1)c1ccccc1)C2 (stereo not shown) [Clidinium]
MATE1 ratio [1, 3]: 16.18 | MATE1 (uptake ratio) [1, 6]: 16.18 | MATE2K ratio [2, 3]: 1.79 | MATE2 (uptake ratio) [2, 7]: 1.79

OCc1cc(C(O)CNCCCCCCOCCCCc2ccccc2)ccc1O (stereo not shown) [Salmeterol]
MATE1 ratio [1, 3]: 1.78 | MATE1 [1, 4]: 1.78 | MATE2K ratio [2, 3]: 1.17 | MATE2 [2, 5]: 1.17

CNC[C@H](O)c1ccc(O)c(O)c1 (racemic) [Epinephrine (rac), Epinephrine]
MATE1 ratio [1, 3]: 18.70 | MATE2K ratio [2, 3]: 3.27

C1CCN2C[C@@H]3C[C@@H](CN4CCCC[C@@H]34)[C@H]2C1 [Sparteine (+), Sparteine]
MATE1 [1]: 1.62 | MATE1 ratio [1]: 1.62 | MATE2 [2]: 1.31 | MATE2K ratio [2]: 1.31

CNCCc1ccc(O)c(O)c1 [Deoxyepinephrine]
MATE1 ratio [1, 3]: 34.31 | MATE2K ratio [2, 3]: 3.40

COc1cc2ncnc(Nc3ccc(F)c(Cl)c3)c2cc1OCCCN1CCOCC1 [Gefitinib]
MATE1 ratio [1, 3]: 0.89 | MATE2K ratio [2, 3]: 0.88

CC[C@@H]1CN(C(=O)NCC(F)(F)F)C[C@@H]1c1cnc2cnc3[nH]ccc3n12 [Upadacitinib]
MATE1 [1, 4]: 1.51 | MATE2 [2, 5]: 1.27

NNCCc1ccccc1 [Phenelzine]
MATE1 ratio [1, 3]: 1.58 | MATE2K ratio [2, 3]: 1.91

CC(C)NCC(O)COc1ccc(CCOCC2CC2)cc1 (stereo not shown) [Betaxolol]
MATE1 ratio [1, 3]: 1.37 | MATE1 (uptake ratio) [1, 6]: 1.37 | MATE2K ratio [2, 3]: 1.43 | MATE2 (uptake ratio) [2, 7]: 1.43

CC(C1=C(CCN(C)C)Cc2ccccc21)c1ccccn1 (stereo not shown) [Dimethindene]
MATE1 ratio [1, 3]: 0.99 | MATE2K ratio [2, 3]: 1.02

C/C=C(\C)C(=O)OC(CC(=O)[O-])C[N+](C)(C)C (stereo not shown) [Tiglylcarnitine]
MATE1 [1, 4]: 0.96 | MATE2 [2, 5]: 0.76

O=C1CCC[C@@H]2[C@H]3CCCN4CCC[C@@H](CN12)[C@@H]34 [Matrine]
MATE1 ratio [1]: 1.03 | MATE2K ratio [2]: 1.27

CN(C)CCc1ccc(O)cc1 [Hordenine]
MATE1 ratio [1]: 1.16 | MATE2K ratio [2]: 1.20
